Patent US20200308622A1, “Phage-Mediated Molecular Detection Methods and Related Aspects” (United States of America as represented by the Secretary of …, priority 2017, published 2020)

Experiments:
MSSA strain RN4220 = test: PMMD (phage K RT-qPCR) antibiotic sensitivity assay, MSSA; type: cell-based, Staphylococcus aureus; conditions: cefoxitin 4 μg/ml, with vs without fox, phage K gp125 RNA qPCR
Description: (§1) Staphylococcus aureus (S. aureus) bacterial cultures were grown for one hour in LB-Lennox (10 g/l Tripone, 5 g/l yeast extract and 5 g/l NaCl) media at 37° C. with strong aeration (225 rpm shaking). For antibiotic sensitivity assays the cultures were grown for one or three hours, as indicated, and cefoxitin (Sigma-Aldrich) was added at a final concentration of 4 μg/ml using a 1,000× stock in water.
(§2) The reactions were performed by mixing 50 μl of S. aureus bacterial cultures (˜2×10^9 cfu/ml) and 50 μl of a phage K lysate ( about 5×10^8 pfu/ml) or 1 μl of CsCl gradient purified phage K (about 1×10^10 pfu/ml). The mixtures were incubated on ice for 3-4 minutes and the infections were allowed to proceed for 10 minutes, unless indicated otherwise, at 37° C. with shaking (400 rpm). Five minutes prior to the end of the incubation, lysostaphin (Sigma-Aldrich) w as added from a 20× stock (2 mg/ml).
(§3) Single-step fluorescent quantitative or real-time PCR (qPCR) was done with Luna one-step RT-qPCR kit (NEB) using low profile clear 0.2 ml PCR tubes and optical ultraclear flat caps (BioRad). The reactions were run in a CFX96 real-time PCR detection system (BioRad) with CFX Manager 3. Quantification cycle values (Cqs) were auto calculated by the software, and ranged front about […]. […] 10 minutes/35× (95° C. 10 seconds, 60° C. 30 seconds, plate read). […]

MRSA strain SA-1012.COI = test: PMMD (phage K RT-qPCR) antibiotic sensitivity assay, MRSA; type: cell-based, Staphylococcus aureus; conditions: cefoxitin 4 μg/ml, with vs without fox, phage K gp125 RNA qPCR
Description: as §1, §2, §3

CO[C@@]1(NC(=O)Cc2cccs2)C(=O)N2C(C(=O)O)=C(COC(N)=O)CS[C@@H]21 [fox, cefoxitin]
increase of Cq values on addition of fox in the media (MSSA strain RN4220; one hour of incubation): about 1.5 | increase of Cq values on addition of fox in the media (MSSA strain RN4220; three hours of incubation): about 11.5 | Cq increase in the presence of fox (MRSA strain SA-1012.COI; one hour of incubation): about 1.0 | Cq increase in the presence of fox (MRSA strain SA-1012.COI; three hours of incubation): about 0.0
